The values that follow are results of earlier work, collected in patent US6846495B2, “Compositions having improved delivery of actives” (The Procter & Gamble Company, priority 1999, dated 2005).

For the data set the following is noted: intranasal formulations.

`COc1ccc2c(c1)[C@@]13CCCC[C@H]1[C@@H](C2)N(C)CC3` [Dextromethorphan, 3-methoxy-17-methylmorphinan]: the bioavailability result is “substantial increases in bioavailability”.
